# Patent US20260216189A1, “TOPICAL COMPOSITIONS CONTAINING A JANUS KINASE INHIBITOR” (Zoetis Services LLC, priority 2023, published 2026)
# Columns and labels:
# [1] = test system: HDM challenge site (excoriation lesions and erythema); assay: house dust model (HDM) challenge, topical treatment of beagle dogs; colorimeter erythema and lesion scores; format: in vivo; conditions: for Post challenge total lesion scores compared to the saline group: treatment groups vs saline group
# Method: (§1) The pharmacokinetics and pharmacodynamics (PK/PD) of orally dosed oclacitinib (0.4-0.6 mg/kg) is well understood. […] An oral 14C-oclacitinib study determined that a single 0.4 mg/kg dose achieved a mean skin concentration of 212 ng equivalents/gram of tissue. A house dust model (HDM) was used to assess the efficacy of the compositions described herein. The topical HDM challenge results in excoriation lesions and erythema at the challenge site. In one study, placebo (saline, TO1), triamcinolone acetonide 0.15 mg/mL (T02), oclacitinib maleate 7.5 mg/mL (T03) and oclacitinib maleate 10 mg/mL (T04) were topically administered to beagle dogs (8/group). The weights of drug in T02-T04 were freebase amounts.
# Daily assessments were observed through Day 41. Colorimeter measurements provided quantified erythema scores. […] Lesions were observed and scored based on severity of erythema, papules and excoriations at the challenge site.
# [2] = in vivo, po, 0.4 mg/kg
# Method: as §1
# Systemic plasma concentrations and skin concentrations 24 hours post dose were assessed for multiple compositions of the invention in a number of PK studies; including compositions with oclacitinib or oclacitinib maleate with API concentrations ranging from 1-10 mg/mL oclacitinib. […] The oral 14C-oclacitinib study determined that a 0.4 mg/kg oral dose of oclacitinib achieved a mean skin concentration of 212 ng equivalents/gram. […]
# [3] = PK studies of topical compositions: systemic plasma and skin concentrations, single and repeat dose; format: in vivo
# Method: Systemic plasma concentrations and skin concentrations 24 hours post dose were assessed for multiple compositions of the invention in a number of PK studies; including compositions with oclacitinib or oclacitinib maleate with API concentrations ranging from 1-10 mg/mL oclacitinib. The compositions tested to date have shown prolonged absorption that lasts at least 72 hours following a single dose and low topical bioavailability of less than 10% with single dose skin concentrations at least 20-80 times that observed in the oral single dose ^14C study. The oral 14C-oclacitinib study determined that a 0.4 mg/kg oral dose of oclacitinib achieved a mean skin concentration of 212 ng equivalents/gram. Permeation and penetration studies with compositions comprising a glycol, glycol ether and DMSO achieved single dose skin concentrations greater (28.4-54.5 μg/g) than that concentration achieved following oral administration, as mentioned above, and well above the reported oclacitinib IC50's for pro-inflammatory and pruritogenic cytokines.
# The rate and amount of topical absorption can be a non-linear function of the API concentration of the composition. The topical compositions of the invention minimized systemic plasma oclacitinib concentrations while maintaining high skin concentrations. […] The studies to date and formulations described herein have shown that the compositions deliver skin concentrations greater than those observed with oral dosing. […] The topical single dose bioavailability is low, less than 5% when administered to an area that limits oral exposure from licking. […] Formulations with a lower oclacitinib concentration had lower systemic exposures.
# [4] = subsequent study, 2-3 sprays of topical solution, skin concentrations; format: in vivo; conditions: 2.5-10 mg/mL, about 0.25 to 0.5 mL topical
# Method: In a subsequent study, animals received 2.5-10 mg/mL oclacitinib by applying 2-3 sprays for a total of about 0.25 to 0.5 mL of the topical solution to an area of skin.
# [5] = test system: IL-31 induced itch; conditions: orally dosed oclacitinib (0.4-0.6 mg/kg); cited from earlier work
mean skin concentration [2] [ng equivalents/gram],"24-hour post dose skin concentrations following repeat dosing, fold higher ([3]; across study comparisons, repeat vs single dosing)","bioavailability ([3]; plasma, topical, administered to an area that limits oral exposure from licking) [%]","PK following topical administration, maleate vs freebase formulations ([3]; topical)",skin concentrations of oclacitinib [4],Compound,"erythema reduction compared to saline (colorimeter) ([1]; 7.5 mg/mL topical, Day 36 (P=0.0993))",area under the curve (AUC) of total lesion scores compared to saline ([1]; 10 mg/mL (p<0.08)),"erythema reduction compared to saline (colorimeter) ([1]; 10 mg/mL topical, Days 27, 28, and 36 (p≤0.0948))","lesion score reduction after the dosing period ended, versus other treatment groups ([1]; after the 28 day dosing period, observation through Day 41)","erythema reduction compared to saline (colorimeter) ([1]; both concentrations (7.5 and 10 mg/mL), topical once daily, after approximately 1 month of dosing)",Post challenge total lesion scores compared to the saline group [1],"lesion score reduction compared to saline ([1]; spray 7.5 mg/mL, Days 4, 7, 11, 26, 27, 30, and 39)","lesion score reduction compared to saline ([1]; spray 10 mg/mL, Days 7-11, 26, 30, and 32-34)",accumulation in skin and plasma ([3]; following multiple daily administrations),systemic levels ([3]; following multiple daily doses),systemic plasma concentrations: absorption and terminal phase ([3]; single and repeat dose studies),Plasma concentrations effective in reducing IL-31 induced itch [5],"lesion score reduction compared to saline ([1]; triamcinolone 0.15 mg/mL, Day 35)","lesion score reduction compared to saline ([1]; triamcinolone 0.15 mg/mL, Days 4, 8, 10, 11)","erythema reduction compared to saline (colorimeter) ([1]; triamcinolone spray 0.15 mg/mL, Days 12, 14, 19, 24-26, 28-33, and 35-41 (P≤0.0912))"
212,at least 5 times,< 5,comparable,acceptable skin concentrations,"CNS(=O)(=O)C[C@H]1CC[C@H](N(C)c2ncnc3[nH]ccc23)CC1 [oclacitinib, N-methyl-1-{trans-4-[methyl (7H-pyrrolo[2,3-d]pyrimidin-4-yl)amino]cyclohexyl}-methanesulfonamide]",significantly greater reduction in erythema,significantly lower,significantly greater reduction,continued to demonstrate significant reduction in lesion scores,significant erythema reductions,significantly higher,significantly greater lesion score reductions,significantly greater lesion score reductions,Accumulation in skin and plasma was observed,at a concentration that has shown efficacy in reducing IL-31 induced itch,prolonged absorption with the terminal phase not evident 10 days post dose,greater than 12 ng/ml,,,
,,,,,"CC1(C)O[C@@H]2C[C@H]3[C@@H]4CCC5=CC(=O)C=C[C@]5(C)[C@@]4(F)[C@@H](O)C[C@]3(C)[C@]2(C(=O)CO)O1 [triamcinolone, triamcinolone acetonide]",,,,,,significantly higher,,,,,,,significantly lesser reduction,significantly greater reductions in lesion scores,significantly less reduction in erythema
,,,comparable,,oclacitinib maleate,,,,,,,,,,,,,,,
